Among the data in US20250092056A1, “URACIL DERIVATIVES HAVING VIRUS REPLICATION INHIBITORY ACTIVITY AND PHARMACEUTICAL COMPOSITION COMPRISING THE SAME” (Shionogi & Co., Ltd., priority 2022, published 2025) are EC50 and IC50 values, retold here.

pEC50, pIC50: −log10 of the molar value.

In one experiment the test system is SARS-CoV-2. Briefly: Cytopathic effect (CPE) suppression effect confirmation test using HEK293T/ACE2-TMPRSS2 cells. In kind it is cell-based. The settings on record: Severe acute respiratory syndrome coronavirus 2, HEK-293T; 50% SARS-CoV-2 infected cell death inhibitory concentration; HEK293T/ACE2-TMPRSS2 cells; read-out: EC50. Background: Protection from cytopathic effect is a common read-out in antiviral testing.

Experiment [1] deals with Recombinant SARS-CoV-2 3CL Protease (Severe acute respiratory syndrome coronavirus 2 (2019-nCoV) (SARS-CoV-2), UniProt P0DTD1). Briefly: biochemical. The class given is biochemical. The settings on record: 50% SARS-CoV-2 3CL protease inhibitory concentration; read-out: IC50.

By pEC50 is commonly meant the EC50 on a negative log10 scale, so that one unit is a factor of ten. As usually defined, the pIC50 is the negative decadic logarithm of the IC50, by convention in mol/L. On to `CC(C)(F)CCc1c(-c2ccc(F)c(Cl)c2)c(=O)n(-c2cncc(Cl)c2)c(=O)n1CC#N` [Compound I-357], for which the negative-log EC50 (pEC50) in the experiment with SARS-CoV-2 was > 7.00. Besides, the negative logarithm of the IC50 (pIC50) in experiment [1] was > 8.00.
For `N#CCn1c(N2CC(OC(F)F)C2)c(-c2ccc(F)c(Cl)c2)c(=O)n(-c2cncc(C(F)F)n2)c1=O` [Compound I-358], the negative-log EC50 (pEC50) with SARS-CoV-2 is > 7.00. In experiment [1], the pIC50 was > 8.00.
For `N#CCn1c(-c2nnc(C3CC3)s2)c(-c2ccc(F)c(Cl)c2)c(=O)n(-c2cncc(Cl)c2)c1=O` [Compound I-359] the same measures were > 7.00 and > 8.00.
For `Cc1coc(-c2c(-c3ccc(F)c(Cl)c3)c(=O)n(-c3cncc(Cl)c3)c(=O)n2CC#N)n1` [Compound I-360] the same measures were > 7.00 and > 8.00.
For `N#CCn1c(N2CC3(C2)CC(F)(F)C3)c(-c2ccc(F)c(Cl)c2)c(=O)n(-c2cncc(Br)c2)c1=O` [Compound I-361] the same measures were > 7.00 and > 8.00.
Consider `N#CCn1c(N2CC3(C=C(F)C3)C2)c(-c2ccc(F)c(Cl)c2)c(=O)n(-c2cncc(Cl)c2)c1=O` [Compound I-362], for which the pEC50 with SARS-CoV-2 was > 7.00. Moreover, the negative logarithm of the IC50 (pIC50) in experiment [1] is > 8.00.
The matching figures for `N#CCn1c(N2CC3(C2)CC(F)(F)C3)c(-c2ccc(F)c(Cl)c2)c(=O)n(-c2cncc(I)c2)c1=O` [Compound I-363]: > 7.00 and > 8.00.
The matching figures for `N#CCn1c(N2CC3(CCOC3)C2)c(CC2CC(F)(F)C2)c(=O)n(-c2cncc(Cl)c2)c1=O` [Compound I-364]: 6.00 to 7.00 and < 7.00.
For `N#CCn1c(N2CC3(CCOC3)C2)c(CCCC(F)(F)F)c(=O)n(-c2cncc(Cl)c2)c1=O` [Compound I-365] the same measures were 6.00 to 7.00 and 7.00 to 8.00.
As for `N#CCn1c(N2CC3(C2)CC(F)(F)C3)c(-c2cc(F)c(F)c(C#N)c2)c(=O)n(-c2cncc(Cl)c2)c1=O` [Compound I-366], the pEC50 in the experiment with SARS-CoV-2 is > 7.00. Further, the pIC50 in experiment [1] is > 8.00.
For `N#CCn1c(N2CC(O)(C(F)(F)F)C2)c(-c2cc(F)c(F)c(C#N)c2)c(=O)n(-c2cncc(Cl)c2)c1=O` [Compound I-367] the same measures were > 7.00 and > 8.00.
For `N#CCn1c(N2CC(C(F)(F)F)C2)c(-c2cc(F)c(F)c(C#N)c2)c(=O)n(-c2cncc(Cl)c2)c1=O` [Compound I-368] the same measures were > 7.00 and > 8.00.
Regarding `N#CCn1c(N2CC(OC(F)F)C2)c(-c2cc(F)c(F)c(C#N)c2)c(=O)n(-c2cncc(Cl)c2)c1=O` [Compound I-369], the pEC50 in the experiment with SARS-CoV-2 is > 7.00. Also, the pIC50 in experiment [1] is > 8.00.
As to `N#CCn1c(N2C[C@@H]3C[C@H]2CO3)c(-c2cc(F)c(F)c(C#N)c2)c(=O)n(-c2cncc(Cl)c2)c1=O` [Compound I-370], the pEC50 in the experiment on SARS-CoV-2 is > 7.00. Besides, in experiment [1], the pIC50 was > 8.00.
For `N#CCn1c(C2CC(O)C2)c(-c2ccc(F)c(Cl)c2)c(=O)n(-c2cncc(Cl)c2)c1=O` (stereo not drawn) [Compound I-371] the same measures were > 7.00 and > 8.00.
The matching figures for `N#CCn1c(N2CC3(C2)CC(F)(F)C3)c(-c2ccc(F)c(C#N)c2)c(=O)n(-c2cncc(Cl)c2)c1=O` [Compound I-372]: > 7.00 and > 8.00.
The matching figures for `N#CCn1c(N2CC(O)(C(F)(F)F)C2)c(-c2ccc(F)c(C#N)c2)c(=O)n(-c2cncc(Cl)c2)c1=O` [Compound I-373]: > 7.00 and > 8.00.
For the molecule `N#CCn1c(N2CC(C(F)(F)F)C2)c(-c2ccc(F)c(C#N)c2)c(=O)n(-c2cncc(Cl)c2)c1=O` [Compound I-374], in the experiment with SARS-CoV-2, the pEC50 was > 7.00. The negative logarithm of the IC50 (pIC50) in experiment [1] is > 8.00.
On to `N#CCn1c(N2CC(OC(F)F)C2)c(-c2ccc(F)c(C#N)c2)c(=O)n(-c2cncc(Cl)c2)c1=O` [Compound I-375], for which the pEC50 in the experiment on SARS-CoV-2 was > 7.00. Also, the pIC50 in experiment [1] is > 8.00.
As to `N#CCn1c(N2C[C@@H]3C[C@H]2CO3)c(-c2ccc(F)c(C#N)c2)c(=O)n(-c2cncc(Cl)c2)c1=O` [Compound I-376], in the experiment with SARS-CoV-2, the pEC50 was > 7.00. Further, the pIC50 in experiment [1] was > 8.00.
For `N#CCn1c(N2CC(O)(c3ncccn3)C2)c(-c2ccc(F)c(Cl)c2)c(=O)n(-c2cncc(OCF)n2)c1=O` [Compound I-377] the same measures were > 7.00 and > 8.00.
The matching figures for `N#CCn1c(N2CC(O)(c3ncccn3)C2)c(-c2ccc(F)c(Cl)c2)c(=O)n(-c2cncc(OC(F)F)n2)c1=O` [Compound I-378]: > 7.00 and > 8.00.
The matching figures for `COc1ccc(-c2c(-c3ccc(F)c(Cl)c3)c(=O)n(-c3cncc(Cl)c3)c(=O)n2CC#N)cn1` [Compound I-379]: > 7.00 and > 8.00.
As to `N#CCn1c(-c2ccc(CO)nc2)c(-c2ccc(F)c(Cl)c2)c(=O)n(-c2cncc(Cl)c2)c1=O` [Compound I-380], the pEC50 in the experiment with SARS-CoV-2 was > 7.00. Besides, the pIC50 in experiment [1] is > 8.00.
For `N#CCn1c(N2CC(O)(C3CC3)C2)c(-c2ccc(F)c(Cl)c2)c(=O)n(-c2cncc(C(F)F)n2)c1=O` [Compound I-381] the same measures were > 7.00 and > 8.00.
The matching figures for `CC1(O)CN(c2c(-c3ccc(F)c(Cl)c3)c(=O)n(-c3cncc(C(F)F)n3)c(=O)n2CC#N)C1` [Compound I-382]: > 7.00 and > 8.00.
For `N#CCn1c(N2CC(O)(C(F)(F)F)C2)c(-c2ccc(F)c(Cl)c2)c(=O)n(-c2cncc(C(F)F)n2)c1=O` [Compound I-383] the same measures were > 7.00 and > 8.00.
For the molecule `N#CCn1c(-c2ccc(C#N)nc2)c(-c2ccc(F)c(Cl)c2)c(=O)n(-c2cncc(Cl)c2)c1=O` [Compound I-384], in the experiment on SARS-CoV-2, the negative-log EC50 (pEC50) is > 7.00. Besides, the pIC50 in experiment [1] is > 8.00.
For `N#CCn1c(-c2ccc(F)nc2)c(-c2ccc(F)c(Cl)c2)c(=O)n(-c2cncc(Cl)c2)c1=O` [Compound I-385], the pEC50 in the experiment with SARS-CoV-2 was > 7.00. Moreover, in experiment [1], the pIC50 is > 8.00.
For `N#CCn1c(-c2ccc(C(F)F)nc2)c(-c2ccc(F)c(Cl)c2)c(=O)n(-c2cncc(Cl)c2)c1=O` [Compound I-387] the same measures were > 7.00 and > 8.00.
For `N#CCn1c(C2CC2)c(-c2ccc(F)c(Cl)c2)c(=O)n(-c2cncc(Cl)c2)c1=O` [Compound I-388] the same measures were > 7.00 and > 8.00.
The matching figures for `COCC1CN(c2c(-c3ccc(F)c(Cl)c3)c(=O)n(-c3cncc(C(F)F)n3)c(=O)n2CC#N)C1` [Compound I-389]: > 7.00 and > 8.00.
On to `N#CCn1c(C2CC(F)(C3CC3)C2)c(-c2ccc(F)c(Cl)c2)c(=O)n(-c2cncc(C(F)F)n2)c1=O` (stereo not drawn) [Compound I-390], for which the pEC50 in the experiment on SARS-CoV-2 was > 7.00. Moreover, the negative-log IC50 (pIC50) in experiment [1] is > 8.00.
In the case of `N#CCn1c(CCC2CC(F)(F)C2)c(-c2ccc(F)c(Cl)c2)c(=O)n(-c2cncc(Cl)c2)c1=O` [Compound I-391], the pEC50 in the experiment on SARS-CoV-2 was > 7.00. Besides, in experiment [1], the pIC50 was > 8.00.
The matching figures for `N#CCn1c(C2CC(F)(F)C2)c(-c2ccc(F)c(Cl)c2)c(=O)n(-c2cncc(Cl)c2)c1=O` [Compound I-394]: > 7.00 and > 8.00.
The matching figures for `N#CCn1c(C2CCC2)c(-c2ccc(F)c(Cl)c2)c(=O)n(-c2cncc(Cl)c2)c1=O` [Compound I-395]: > 7.00 and > 8.00.
